According to patent publication US20060110376A1, “MDA-7 and free radicals in the treatment of cancer” (priority 2002, published 2006):

Tests used:
[1] = system: A498, UOK121N and primary renal epithelial cells; experiment: MTT cell growth assay, arsenic trioxide alone; type: cell-based, human
Protocol: FIG. 26. Arsenic trioxide causes a concentration-dependent reduction in primary and renal carcinoma cell growth. Cells were plated in 12 well plates (˜1×10^4 cells/well) and 24 h later treated with increasing concentrations of As2O3 as indicated. Cell growth was determined via MTT assay 96 h after GST-MDA-7 treatment. Data are the means of 12 wells (one plate per condition, ±SEM) from a representative experiment using separate As2O3 formulations (n=3). Arsenic trioxide caused a dose-dependent enhancement in cell killing at higher concentrations >10 μM.
MTT Assay for Determination of Cellular Viability. The MTT test is based on the enzymatic reduction of the tetrazolium salt MTT in living, metabolically active cells but not in dead cells. Cells were plated (5-10,000 cells per well of a 12 well plate) and 24 h after plating treated with either GST or GST-MDA-7 at the indicated concentrations. Thirty minutes after protein treatment, cells were treated with arsenic trioxide at the indicated concentrations. The cytotoxicity of the various treatments was assessed four days after irradiation by measurement of cell viability by use of the MTT assay, as described previously (McKinstry et al., 2002, Cancer Biol. Ther. 1:243-253). The plates were read on a Dynatech MR600 Microplate Reader at 540 nm. […]

[2] = system: normal cells (immortalized human astrocytes or melanocytes); experiment: MTT viability assay; type: cell-based; settings: Ad.mda-7 100 p.f.u./cell
Protocol: MTT Viability Assays. Cell viability was assessed by MTT assays as described (Lebedeva et al., 2000, Cancer Research 60:6052-6060). Briefly, cells were seeded in 96-well tissue culture plates (1.5×10^3 cells per well) and treated with various agents. At the indicated times, medium was removed, and fresh medium containing 0.5 mg/ml MTT was added to each well. The cells were incubated at 37° C. for 4 h and then an equal volume of solubilization solution (0.01N HCl in 10% SDS) was added to each well and mixed thoroughly. The optical density from the plates was read on a BioRad Microplate Reader Model 550 at 595 nm.

[3] = system: RT2 cells; experiment: MTT growth and trypan blue viability with NAC or Ad.Bcl-XL; type: cell-based, rat; settings: 10 mM NAC 30 min before 6 Gy; Ad.mda-7 25 m.o.i.
Protocol: FIG. 15A-D. Ad.mda-7 reduces the expression of Bcl-XL and increases the levels of BAX, consistent with a causal role of Bcl-XL expression in the radiosensitizing effect. Cells were cultured for 24 h after plating then infected with Ad.mda-7 or CMV control viruses (25 m.o.i.). The cells were irradiated (6 Gy) 24 hours after infection. Cells were isolated 96 h after irradiation and processed. Panel A. Ad.mda-7 and radiation suppress the expression of Bcl-XL and enhance BAX levels in RT2 cells 96 h after irradiation. Cells were processed for SDS PAGE and immunoblotting. A representative study (n=3). Panel B. RT2 cells were cultured for 24 h then infected with Ad.mda-7 or CMV control viruses at 25 m.o.i. The cells were irradiated (6 Gy) 24 hours after infection. Cells were isolated 96 h after irradiation and the integrity of nuclear DNA under each condition determined. Data are from two representative experiments. Panel C. […] Cells were processed 96 h after irradiation and cell viability determined via trypan blue exclusion assay. […]
MIT Assay for Determination of Cellular Viability. […] The cytotoxicity of the various treatments was assessed four days after irradiation by measurement of cell viability by use of the MTT assay, as described previously (Mosmann, 1983, J. Immunol. Methods 65:55-63). The plates were read on a Dynatech MR600 Microplate Reader at 540 nm. […]

Molecule	concentrations giving dose-dependent enhancement in cell killing [1] [µM]	concentration above which proliferation was dose-dependently reduced ([1]; 96 h)	growth, combinational treatment with Ad.mda-7 [2]	effect of NAC on Ad.mda-7 + radiation cell killing and proliferation [3]
arsenic trioxide	> 10	above 1 μM	does not affect growth of normal cells	
CC(=O)N[C@@H](CS)C(=O)O [NAC, N-acetyl-cysteine]				abolished the enhancement in cell killing and reduction in proliferation
